The source made the active and inactive calls. No cut-off for these calls is given here.
Key:
Assay type in all cases: functional
Penicillium chrysogenum [1] = test: Antifungal activity against Penicillium chrysogenum at 100 ug after 48 hrs by agar well diffusion method; conditions: for zone of inhibition at 100 µg/disc: read-out: DIZ
Penicillium chrysogenum [2] = test: Fungicidal activity against Penicillium chrysogenum after 48 hrs by broth dilution method
Aspergillus niger [3] = test: Antifungal activity against Aspergillus niger at 100 ug after 48 hrs by agar well diffusion method; conditions: for zone of inhibition at 100 µg/disc: read-out: DIZ
Penicillium chrysogenum [4] = test: Antifungal activity against Penicillium chrysogenum at 50 ug after 48 hrs by agar well diffusion method; conditions: for zone of inhibition at 50 µg/disc: read-out: DIZ
Aspergillus niger [5] = test: Antifungal activity against Aspergillus niger at 50 ug after 48 hrs by agar well diffusion method; conditions: for zone of inhibition at 50 µg/disc: read-out: DIZ
Aspergillus niger [6] = test: Fungicidal activity against Aspergillus niger after 48 hrs by broth dilution method
Pseudomonas aeruginosa [7] = test: Bactericidal activity against Pseudomonas aeruginosa after 24 hrs by broth dilution method
Aspergillus niger [8] = test: Fungicidal activity against Aspergillus niger after 48 hrs by NCCLS M27-P broth dilution method
Bacillus subtilis [9] = test: Bactericidal activity against Bacillus subtilis after 24 hrs by broth dilution method
Klebsiella pneumoniae [10] = test: Bactericidal activity against Klebsiella pneumoniae after 24 hrs by NCCLS M7-A3 method
Klebsiella pneumoniae [11] = test: Antibacterial activity against Klebsiella pneumoniae at 50 ug after 24 hrs by agar well diffusion method; conditions: for zone of inhibition at 50 µg/disc: read-out: DIZ
Staphylococcus aureus [12] = test: Antibacterial activity against Staphylococcus aureus assessed at 50 ug after 24 hrs by agar well diffusion method; conditions: for zone of inhibition at 50 µg/disc: read-out: DIZ
Staphylococcus aureus [13] = test: Antibacterial activity against Staphylococcus aureus at 35 degC after 24 hrs by broth dilution method
Penicillium chrysogenum [14] = test: Fungicidal activity against Penicillium chrysogenum after 48 hrs by NCCLS M27-P broth dilution method
Klebsiella pneumoniae [15] = test: Antibacterial activity against Klebsiella pneumoniae at 100 ug after 24 hrs by agar well diffusion method; conditions: for zone of inhibition at 100 µg/disc: read-out: DIZ
Pseudomonas aeruginosa [16] = test: Antibacterial activity against Pseudomonas aeruginosa at 50 ug after 24 hrs by agar well diffusion method; conditions: for zone of inhibition at 50 µg/disc: read-out: DIZ
Staphylococcus aureus [17] = test: Antibacterial activity against Staphylococcus aureus at 100 ug after 24 hrs by agar well diffusion method; conditions: for zone of inhibition at 100 µg/disc: read-out: DIZ
Bacillus subtilis [18] = test: Antibacterial activity against Bacillus subtilis at 50 ug after 24 hrs by agar well diffusion method; conditions: for zone of inhibition at 50 µg/disc: read-out: DIZ
Bacillus subtilis [19] = test: Antibacterial activity against Bacillus subtilis at 100 ug after 24 hrs by agar well diffusion method; conditions: for zone of inhibition at 100 µg/disc: read-out: DIZ
Pseudomonas aeruginosa [20] = test: Antibacterial activity against Pseudomonas aeruginosa at 100 ug after 24 hrs by agar well diffusion method; conditions: for zone of inhibition at 100 µg/disc: read-out: DIZ
Bacillus subtilis [21] = test: Bactericidal activity against Bacillus subtilis after 24 hrs by NCCLS M7-A3 method
Pseudomonas aeruginosa [22] = test: Bactericidal activity against Pseudomonas aeruginosa after 24 hrs by NCCLS M7-A3 method
Staphylococcus aureus [23] = test: Antibacterial activity against Staphylococcus aureus at 35 degC after 24 hrs by NCCLS M7-A3 method
Klebsiella pneumoniae [24] = test: Bactericidal activity against Klebsiella pneumoniae after 24 hrs by broth dilution method

MIC (Staphylococcus aureus [13]) | SMILES | zone of inhibition at 100 µg/disc (Penicillium chrysogenum [1]) | MIC (Penicillium chrysogenum [2]) | zone of inhibition at 100 µg/disc (Aspergillus niger [3]) | zone of inhibition at 50 µg/disc (Penicillium chrysogenum [4]) | zone of inhibition at 50 µg/disc (Aspergillus niger [5]) | MIC (Aspergillus niger [6]) | MIC (Pseudomonas aeruginosa [7]) | MFC (Aspergillus niger [8]) | MIC (Bacillus subtilis [9]) | MBC (Klebsiella pneumoniae [10]) | zone of inhibition at 50 µg/disc (Klebsiella pneumoniae [11]) | zone of inhibition at 50 µg/disc (Staphylococcus aureus [12]) | zone of inhibition at 100 µg/disc (Klebsiella pneumoniae [15]) | zone of inhibition at 50 µg/disc (Pseudomonas aeruginosa [16]) | zone of inhibition at 100 µg/disc (Staphylococcus aureus [17]) | zone of inhibition at 50 µg/disc (Bacillus subtilis [18]) | zone of inhibition at 100 µg/disc (Bacillus subtilis [19]) | zone of inhibition at 100 µg/disc (Pseudomonas aeruginosa [20]) | MIC (Klebsiella pneumoniae [24]) | other results
 | CC(=O)N1CCN(c2ccc(OCC3COC(Cn4ccnc4)(c4ccc(Cl)cc4Cl)O3)cc2)CC1 (configuration not stated) [KETOCONAZOLE] | 38 mm | 12.5 µg | 36 mm | 36 mm | 33 mm | 6.25 µg |  |  |  |  |  |  |  |  |  |  |  |  |  | 
50 µg | O=C(Nc1nc(-c2ccc(Cl)cc2)c[nH]1)c1c[nH]cc1-c1ccccc1 | 36 mm | 50 µg | 34 mm | 33 mm | 32 mm | 25 µg | 50 µg | 100 µg | 25 µg | >200 µg | 34 mm | 30 mm | 36 mm | 25 mm | 33 mm | 29 mm | 33 mm | 28 mm | 100 µg | MFC (Penicillium chrysogenum [14]): >200 µg; MBC (Bacillus subtilis [21]): 100 µg; MBC (Pseudomonas aeruginosa [22]): >200 µg; MBC (Staphylococcus aureus [23]): 200 µg
6.25 µg | O=C(N[C@H](CO)[C@H](O)c1ccc([N+](=O)[O-])cc1)C(Cl)Cl [CHLORAMPHENICOL] |  |  |  |  |  |  | 6.25 µg |  | 6.25 µg |  | 40 mm | 33 mm | 42 mm | 27 mm | 35 mm | 34 mm | 38 mm | 30 mm | 12.5 µg | 
12.5 µg | O=C(/C=C/c1ccccc1)Nc1nc(-c2ccc(Cl)cc2)c[nH]1 | 38 mm | 25 µg | 34 mm | 35 mm | 32 mm | 12.5 µg | 12.5 µg | 100 µg | 12.5 µg | 100 µg | 39 mm | 32 mm | 40 mm | 31 mm | 35 mm | 36 mm | 38 mm | 33 mm | 25 µg | MFC (Penicillium chrysogenum [14]): 50 µg; MBC (Bacillus subtilis [21]): 25 µg; MBC (Pseudomonas aeruginosa [22]): 50 µg; MBC (Staphylococcus aureus [23]): 50 µg
 | Cc1ccc(-c2coc(NC(=O)c3c[nH]cc3-c3ccccc3)n2)cc1 |  |  |  |  |  |  |  |  |  |  |  |  |  |  |  |  |  |  |  | diameter of the inhibition zone (DIZ) (Penicillium chrysogenum [1]): inactive; diameter of the inhibition zone (DIZ) (Aspergillus niger [3]): inactive; diameter of the inhibition zone (DIZ) (Klebsiella pneumoniae [11]): inactive; diameter of the inhibition zone (DIZ) (Staphylococcus aureus [12]): inactive; diameter of the inhibition zone (DIZ) (Klebsiella pneumoniae [15]): inactive; diameter of the inhibition zone (DIZ) (Pseudomonas aeruginosa [16]): inactive; diameter of the inhibition zone (DIZ) (Staphylococcus aureus [17]): inactive; diameter of the inhibition zone (DIZ) (Penicillium chrysogenum [4]): inactive; diameter of the inhibition zone (DIZ) (Bacillus subtilis [18]): inactive; diameter of the inhibition zone (DIZ) (Bacillus subtilis [19]): inactive; diameter of the inhibition zone (DIZ) (Pseudomonas aeruginosa [20]): inactive; diameter of the inhibition zone (DIZ) (Aspergillus niger [5]): inactive
50 µg | O=C(Nc1nc(-c2ccc(Cl)cc2)c[nH]1)c1n[nH]cc1-c1ccccc1 | 37 mm | 25 µg | 34 mm | 33 mm | 30 mm | 12.5 µg | 25 µg | 50 µg | 12.5 µg | 200 µg | 37 mm | 31 mm | 39 mm | 30 mm | 34 mm | 33 mm | 35 mm | 32 mm | 50 µg | MFC (Penicillium chrysogenum [14]): 100 µg; MBC (Bacillus subtilis [21]): 50 µg; MBC (Pseudomonas aeruginosa [22]): 100 µg; MBC (Staphylococcus aureus [23]): 200 µg
